These results are taken from ChEMBL document CHEMBL4699470, “N-Substituted piperazine derivatives as potential multitarget agents acting on histamine H receptor and cancer resistance proteins” (Bioorg Med Chem Lett, 2020).

Molecules are shown by their SMILES.

The test system of series [1] is L5178Y. The series can be described thus: Cytotoxicity against mouse L5178Y cells assessed as reduction in cell viability by MTT assay. The class given is functional, cell-based. (In general: Tetrazolium dyes change colour on reduction, which living cells bring about.)
Series [2] deals with L5178Y. The series can be described thus: Cytotoxicity against multidrug resistance mouse L5178Y cells expressing human MDR1 assessed as reduction in cell viability by MTT assay. The class given is functional, cell-based.
The test system of series [3] is L5178Y. The series can be described thus: Antiproliferative activity against mouse L5178Y cells by MTT assay. The class given is functional, cell-based.
Series [4] concerns L5178Y. Briefly: Antiproliferative activity against multidrug resistance mouse L5178Y cells expressing human MDR1 by MTT assay. The class given is functional, cell-based.
For series [5], the species on record is Homo sapiens. The series can be described thus: Substrate activity at Pgp (unknown origin) assessed as increase in ATP basal consumption at 100 uM by Pgp-Glo luminescence assay relative to control.
For series [6], the target named is T1, ATP-dependent translocase ABCB1 (Homo sapiens, UniProt P08183). Briefly: Inhibition of human ABCB1 in expressed in multidrug resistant mouse L5178Y cells assessed as fluorescence activity ratio at 20 uM by rhodamine 123 retention assay relative to parental L5178Y cells. The class given is cell-based.
T1 sequence (P08183 whole entry): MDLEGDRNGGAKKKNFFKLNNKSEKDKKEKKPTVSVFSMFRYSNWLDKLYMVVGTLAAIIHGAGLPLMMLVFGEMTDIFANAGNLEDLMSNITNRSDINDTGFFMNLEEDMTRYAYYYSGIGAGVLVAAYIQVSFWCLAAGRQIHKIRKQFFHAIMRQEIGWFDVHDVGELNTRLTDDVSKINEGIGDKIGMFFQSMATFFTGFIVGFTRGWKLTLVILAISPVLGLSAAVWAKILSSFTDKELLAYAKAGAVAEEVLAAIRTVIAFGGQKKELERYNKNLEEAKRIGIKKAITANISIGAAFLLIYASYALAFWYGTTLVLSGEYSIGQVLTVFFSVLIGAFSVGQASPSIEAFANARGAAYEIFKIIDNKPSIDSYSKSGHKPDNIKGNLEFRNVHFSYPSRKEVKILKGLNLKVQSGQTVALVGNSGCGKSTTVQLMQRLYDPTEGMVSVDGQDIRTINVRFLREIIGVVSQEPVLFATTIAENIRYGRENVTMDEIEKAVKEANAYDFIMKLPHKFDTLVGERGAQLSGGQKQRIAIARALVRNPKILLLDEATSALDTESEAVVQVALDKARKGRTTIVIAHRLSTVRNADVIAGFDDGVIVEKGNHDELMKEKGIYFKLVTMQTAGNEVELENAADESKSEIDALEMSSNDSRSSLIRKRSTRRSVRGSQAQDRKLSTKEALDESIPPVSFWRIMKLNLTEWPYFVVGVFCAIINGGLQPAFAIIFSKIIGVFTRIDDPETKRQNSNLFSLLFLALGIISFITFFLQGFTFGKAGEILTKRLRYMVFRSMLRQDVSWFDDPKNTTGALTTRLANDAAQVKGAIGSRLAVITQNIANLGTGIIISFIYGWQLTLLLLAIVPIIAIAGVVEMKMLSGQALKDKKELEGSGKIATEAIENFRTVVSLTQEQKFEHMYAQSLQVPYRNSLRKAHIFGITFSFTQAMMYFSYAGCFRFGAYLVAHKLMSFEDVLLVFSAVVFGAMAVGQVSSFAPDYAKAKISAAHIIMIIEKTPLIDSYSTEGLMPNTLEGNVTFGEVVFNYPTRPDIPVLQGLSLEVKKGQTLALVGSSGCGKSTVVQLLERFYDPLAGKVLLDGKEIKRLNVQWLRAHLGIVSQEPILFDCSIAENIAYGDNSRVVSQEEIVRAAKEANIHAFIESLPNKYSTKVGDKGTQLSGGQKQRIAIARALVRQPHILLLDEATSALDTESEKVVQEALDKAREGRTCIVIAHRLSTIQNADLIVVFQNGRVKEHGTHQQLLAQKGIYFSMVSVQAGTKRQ
Series [7] has as its target T1, ATP-dependent translocase ABCB1. Briefly: Inhibition of human ABCB1 in expressed in multidrug resistant mouse L5178Y cells assessed as fluorescence activity ratio by rhodamine 123 retention assay relative to verapamil. The class given is cell-based.
Series [8] shares this target. The series can be described thus: Inhibition of human ABCB1 in expressed in multidrug resistant mouse L5178Y cells assessed as fluorescence activity ratio at 2 uM by rhodamine 123 retention assay relative to parental L5178Y cells. The class given is cell-based.

The IC50 is the point on the concentration scale where inhibition reaches its midpoint. Consider `CSc1ccc2c(c1)N(CCC1CCCCN1C)c1ccccc1S2` (configuration not stated) [THIORIDAZINE], for which the IC50 in series [1] was found to be 12.7 µM; in series [2] it was 7.43 µM.
For the compound `CC(C)(C)c1ccc(OCCCCN2CCN(c3ccccn3)CC2)cc1`, the IC50 came to 15.1 µM in series [1], 11.9 µM in series [3], 16.4 µM in series [4] and 16.7 µM in series [2]. Moreover, the Activity in series [5] was greater than 100%. For the same compound, the figures for the Ratio in series [6], in series [7] and in series [8] were 38.41, 1.6 and 1.74, respectively.
As for `CC(=O)c1ccc(OCCCCN2CCN(c3ccccn3)CC2)cc1`, the IC50 in series [1] amounted to 63.7 µM; in series [3], 24.1 µM; in series [4] it was 25.5 µM; in series [2], 46.2 µM. For the same compound, the values for the Ratio in series [6], in series [7] and in series [8] were 8.71, 1.6 and 0.98, respectively.
Regarding `CC(=O)c1ccc(OCCCN2CCN(c3ncccn3)CC2)cc1`, the results for the IC50 in series [1], in series [3] and in series [4] were greater than 100 µM, 53.2 µM and 77.5 µM, respectively. Besides, the Ratio is on record as 1.03 in series [6] and 1.06 in series [8].
Consider `CC(C)(C)c1ccc(OCCCCN2CCN(c3ncccn3)CC2)cc1`, for which the IC50 in series [1] was 20.8 µM; in series [3], 11.3 µM; in series [4], 9.88 µM; in series [2], 17.6 µM. For the same compound, the Ratio turned out to be 34.05 in series [6], 1.6 in series [7] and 2.7 in series [8].
As to `CC(=O)c1ccc(OCCCCN2CCN(c3cccnc3)CC2)cc1`, the IC50 in series [1] stood at 69 µM; in series [3], 24.2 µM; in series [4] it was 29.8 µM; in series [2] it was 44 µM. Also, the Ratio is given as 0.99 in series [6] and 0.84 in series [8].
Consider `CC(C)(C)c1ccc(OCCCCN2CCN(c3cnccn3)CC2)cc1`, for which the IC50 in series [1] is 18.3 µM; in series [3], 9.86 µM; in series [4] it was 9.68 µM; in series [2], 27.6 µM. Moreover, the Ratio in series [6] was 17.85; in series [7], 1.6; in series [8], 1.36.
As for `CCC(C)(C)c1ccc(OCCCCN2CCN(c3cccnc3)CC2)cc1`, the IC50 in series [1] was determined as 9.23 µM; in series [3], 3.23 µM; in series [4] it was 3.68 µM; in series [2], 7.59 µM. Also, the Activity in series [5] was greater than 100%. Besides, the values for the Ratio in series [6], in series [7] and in series [8] were 19.26, 1.6 and 5.95, respectively.
Consider `CCC(C)(C)c1ccc(OCCCCN2CCN(c3cnccn3)CC2)cc1`, for which the IC50 is 12.6 µM in series [1], 9.56 µM in series [3], 9.49 µM in series [4] and 12.8 µM in series [2]. Moreover, in series [5], the Activity is greater than 100%. The figures for the Ratio in series [6], in series [7] and in series [8] were 73.64, 1.6 and 1.85, respectively.
`CC(=O)c1ccc(OCCCCN2CCN(c3ncccn3)CC2)cc1`: the IC50 in series [1] was greater than 100 µM; in series [3], 31.6 µM; in series [4], 38.9 µM; in series [2] it was 63.9 µM. Further, the Ratio in series [6] came out at 1.28; in series [8] it was 0.86.
Consider `CC(=O)c1ccc(OCCCN2CCN(c3ccccn3)CC2)cc1`, for which the IC50 in series [3] came to 27.1 µM; in series [4] it was 32.8 µM; in series [2] it was 49.7 µM. Also, the values for the Ratio in series [6] and in series [8] were 0.84 and 0.92, respectively.
On to `CC(C)(C)c1ccc(OCCCN2CCN(c3ncccn3)CC2)cc1`, for which the IC50 in series [1] stood at 40.4 µM; in series [3], 25.6 µM; in series [4] it was 20.7 µM; in series [2], 49.4 µM. The Ratio in series [6] stood at 1.02; in series [8], 0.93.
For the compound `CC(C)(C)c1ccc(OCCCCN2CCN(c3cccnc3)CC2)cc1`, the IC50 in series [1] stood at 11.7 µM; in series [3], 5.48 µM; in series [4], 5.99 µM; in series [2] it was 10.5 µM. Moreover, the Activity in series [5] was greater than 100%. Besides, the Ratio was determined as 25.33 in series [6], 1.6 in series [7] and 2.81 in series [8].
Regarding `CC(=O)c1ccc(OCCCN2CCN(c3ccncc3)CC2)cc1`, the IC50 was greater than 100 µM in series [1], 42.3 µM in series [3] and 43.8 µM in series [4]. For the same compound, the results for the Ratio in series [6] and in series [8] were 1.61 and 1.29, respectively.
For the compound `CCC(C)(C)c1ccc(OCCCCN2CCN(c3ncccn3)CC2)cc1`, the IC50 worked out at 46.4 µM in series [1], 17.7 µM in series [3], 18.9 µM in series [4] and 32.1 µM in series [2]. Further, the values for the Ratio in series [6], in series [7] and in series [8] were 32.32, 1.6 and 2.17, respectively.
Take `CCC(=O)c1ccc(OCCCN2CCN(c3ncccn3)CC2)cc1`: the IC50 in series [1] was greater than 100 µM; in series [3] it was 36.9 µM; in series [4] it was 41.3 µM; in series [2], 54.6 µM. The Ratio in series [6] stood at 1.02; in series [8] it was 0.92.
Take `CCC(=O)c1ccc(OCCCN2CCN(c3cnccn3)CC2)cc1`: the IC50 in series [1] was 47.5 µM; in series [3], 24.3 µM; in series [4], 30 µM; in series [2], 60.3 µM. Further, the Ratio in series [6] is reported as 0.82; in series [8] it was 0.83.
